Experimental data from the supplement of paper PMC10307832.

How the values were obtained:
Test in all cases: relative viability (nuclei count vs DMSO), 5 days (fraction); higher = more cells survive
[1] = compound: C1/C(=C\C2=CC=CS2)/C(=O)/C(=C/C3=CC=CS3)/C1 + C[C@]1(O)C[C@@H](c2nc(-c3ccc4ccc(-c5ccccc5)nc4c3)c3c(N)nccn32)C1 [Linsitinib] (partner 1 µM)
In short: (§1)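 Dosing by pin tool came one day after lung cancer cell lines were seeded in 1536-well plates, using either one drug or a fixed anchor-drug dose plus five library-drug doses (not always all listed) in √10 steps. After 5 days, nuclei were counted on 4× images. Relative viability is treated-well nuclei count divided by vehicle-well nuclei count, and values are medians of duplicate plates.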

[2] = compound: C1/C(=C\C2=CC=CS2)/C(=O)/C(=C/C3=CC=CS3)/C1 + O=C(c1cc(Cc2n[nH]c(=O)c3ccccc23)ccc1F)N1CCN(C(=O)C2CC2)CC1 [Olaparib] (partner 8 µM)
In short: as §1

TPCA-1 + Alpelisib = compound: C1=CC(=CC=C1C2=CC(=C(S2)NC(=O)N)C(=O)N)F [TPCA-1] + Cc1nc(NC(=O)N2CCC[C@H]2C(N)=O)sc1-c1ccnc(C(C)(C)C(F)(F)F)c1 [Alpelisib] (partner 2 µM)
In short: as §1

TPCA-1 + Dasatinib = compound: C1=CC(=CC=C1C2=CC(=C(S2)NC(=O)N)C(=O)N)F [TPCA-1] + Cc1nc(Nc2ncc(C(=O)Nc3c(C)cccc3Cl)s2)cc(N2CCN(CCO)CC2)n1 [Dasatinib] (partner 0.075 µM)
In short: as §1

Cell Line | relative viability ([1]; first compound 0.2 µM) | relative viability ([1]; first compound 0.6325 µM) | relative viability ([1]; first compound 2 µM) | relative viability ([1]; first compound 20 µM) | relative viability ([2]; first compound 0.2 µM) | relative viability ([2]; first compound 0.6325 µM) | relative viability ([2]; first compound 2 µM) | relative viability ([2]; first compound 6.325 µM) | relative viability ([2]; first compound 20 µM) | relative viability (TPCA-1 + Alpelisib; first compound 0.04 µM) | relative viability (TPCA-1 + Alpelisib; first compound 0.1265 µM) | relative viability (TPCA-1 + Alpelisib; first compound 0.4 µM) | relative viability (TPCA-1 + Alpelisib; first compound 1.265 µM) | relative viability (TPCA-1 + Alpelisib; first compound 4 µM) | relative viability (TPCA-1 + Dasatinib; first compound 0.04 µM) | relative viability (TPCA-1 + Dasatinib; first compound 0.1265 µM) | relative viability (TPCA-1 + Dasatinib; first compound 0.4 µM) | relative viability (TPCA-1 + Dasatinib; first compound 1.265 µM) | relative viability (TPCA-1 + Dasatinib; first compound 4 µM) | relative viability ([1]; first compound 6.325 µM)
NCI-H1651 | 1.11 | 1.06 | 0.92 | 1.05 | 0.174 | 0.207 | 0.197 | 0.19 | 0.229 | 1.03 | 0.82 | 0.988 | 1.09 | 0.863 | 0.444 | 0.382 | 0.402 | 0.395 | 0.383 | –
SW 1573 | 0.765 | 0.839 | 0.959 | 0.829 | 0.394 | 0.455 | 0.556 | 0.435 | 0.248 | 0.872 | 0.631 | 0.659 | 0.709 | 0.784 | 0.669 | 0.375 | 0.476 | 0.361 | 0.336 | 0.744
PC-3 [JPC-3] | 1.1 | 0.956 | 0.949 | 0.949 | – | 1.22 | 1.09 | 0.762 | 1.19 | 1.01 | 1.02 | 1.04 | 0.957 | 0.958 | 0.959 | 0.99 | 1.04 | 0.943 | 0.999 | 0.891
LOU-NH91 | 1 | 0.898 | 1.03 | 1.02 | 0.943 | 0.899 | 0.915 | 0.872 | 0.928 | 0.769 | 0.652 | 0.736 | 0.78 | 0.669 | 0.558 | 0.558 | 0.38 | 0.43 | 0.52 | 0.806
PC-14 | 0.96 | 0.919 | 0.922 | 0.981 | 0.289 | 0.28 | 0.239 | 0.192 | 0.31 | 0.952 | 0.879 | 0.965 | 0.787 | 0.75 | 0.324 | 0.245 | 0.283 | 0.144 | 0.0724 | 0.829
NCI-H2087 | 1.06 | 1.05 | 0.928 | 0.936 | 0.708 | 0.528 | 0.699 | 0.561 | 0.594 | 1.06 | 0.871 | 0.916 | 1.06 | 0.418 | 1.15 | 0.658 | 0.816 | 0.745 | 0.397 | 0.678
LU99A | 0.535 | 0.497 | 0.574 | 0.61 | 0.225 | 0.255 | 0.279 | 0.222 | 0.234 | 0.564 | 0.445 | 0.5 | 0.388 | 0.243 | 0.509 | 0.522 | 0.619 | 0.356 | 0.366 | 0.353
BEN | 0.96 | 0.923 | 0.877 | 0.757 | 1.15 | 1.03 | 1.19 | 1.04 | 0.944 | 1.14 | 0.842 | 1.13 | 1.19 | 0.806 | 0.294 | 0.283 | 0.335 | 0.391 | 0.267 | 0.841
SK-LU-1 | 1.04 | 1.08 | 1.16 | 1.24 | 0.427 | 0.34 | 0.541 | 0.443 | 0.514 | 1.16 | 0.805 | 1 | 0.605 | 0.452 | 0.217 | 0.189 | 0.209 | 0.183 | 0.173 | 0.984
NCI-H1975 | 1.02 | 0.947 | 0.957 | 0.9 | 0.757 | 0.795 | 0.855 | 0.538 | 0.782 | 0.768 | 0.561 | 0.611 | 0.561 | 0.279 | 0.39 | 0.381 | 0.368 | 0.368 | 0.188 | 0.808
RERF-LC-KJ | 0.903 | 0.922 | 0.801 | 0.794 | 0.948 | 0.956 | 0.869 | 0.724 | 0.637 | 0.974 | 0.774 | 0.773 | 0.733 | 0.699 | 0.988 | 0.668 | 0.76 | 0.591 | 0.508 | 0.812
NCI-H441 | 0.627 | 0.692 | 0.664 | 0.583 | 0.556 | 0.493 | 0.532 | 0.404 | 0.569 | 0.903 | 0.497 | 0.611 | 0.439 | 0.327 | 0.882 | 0.559 | 0.688 | 0.245 | 0.274 | 0.547
LCLC-103H | 1.12 | 1.16 | 1.15 | 0.995 | 0.738 | 0.795 | 0.739 | 0.68 | 0.722 | 1.06 | 0.901 | 0.992 | 1 | 1.03 | 0.518 | 0.447 | 0.481 | 0.397 | 0.465 | 0.975
HCC-78 | 0.649 | 0.554 | 0.57 | 0.496 | 0.794 | 0.872 | 0.906 | 0.87 | 0.81 | 0.36 | 0.315 | 0.362 | 0.311 | 0.262 | 0.485 | 0.452 | 0.402 | 0.413 | 0.297 | 0.535
NCI-H1915 | 1.14 | 1.08 | 1.09 | 1.1 | 0.264 | 0.247 | 0.307 | 0.241 | 0.26 | 1.11 | 1.05 | 1.08 | 1.03 | 0.936 | 0.322 | 0.292 | 0.33 | 0.263 | 0.243 | 1.04
